Experimental data reported in paper PMC11960070 (Microbiology Spectrum, 2025).
Where no end group is shown, it is not given here.

Tests used:
[1] = test system: B. burgdorferi seropositive serum samples; assay: MIA: Lyme disease-positive human serum IgG binding to Ala-substituted 130–150 peptides; details: n = 26 sera, 1:100
mAb 8C1 = assay: MIA: 8C1 reactivity with OspC-derived peptides / alanine scan

Substance	Effect of Ala substitution on peptide recognition by human serum samples [1]	8C1 reactivity with OspCA peptide (mAb 8C1)
D144: 130–150 peptide with single Ala substitution at D144 (CSETFTNKLKEKHTALGKEGV; also: biotinylated, site not given here; UniProt Q07337 130-150, looked up, variant D144A)	negatively affected	–
E140: 130–150 peptide with single Ala substitution at E140 (CSETFTNKLKAKHTDLGKEGV; also: biotinylated, site not given here; UniProt Q07337 130-150, looked up, variant E140A)	negatively affected	–
130–150: OspCA-derived peptide composed of residues 130-150 (CSETFTNKLKEKHTDLGKEGV; UniProt Q07337 130-150, looked up, fragment)	–	reacted strongly
